According to US12496301B2, “Use of androgen receptor degrader for the treatment of spinal and bulbar muscular atrophy” (Arvinas Operations, Inc., priority 2023, dated 2025):
“Also recorded” adds a separate entry of the source.

Key:
[1] = tested on: hepatocyte; assay: In vitro ADMET: hepatocyte toxicity; assay type: cell-based; details: at 1 μM
[2] = target: hERG (Homo sapiens, UniProt Q12809); assay: In vitro ADMET: hERG inhibition
[3] = Oral bioavailability in non-human primates; assay type: in vivo
[4] = target: T1, AR (Homo sapiens, UniProt P10275); assay: AR agonism assay in MDA-MB-453 ARE-luc reporter cells in the presence of pomalidomide; assay type: cell-based; details: MDA-MB-453 AR luciferase reporter, with pomalidomide
T1 sequence (P10275 1-920 Q868H): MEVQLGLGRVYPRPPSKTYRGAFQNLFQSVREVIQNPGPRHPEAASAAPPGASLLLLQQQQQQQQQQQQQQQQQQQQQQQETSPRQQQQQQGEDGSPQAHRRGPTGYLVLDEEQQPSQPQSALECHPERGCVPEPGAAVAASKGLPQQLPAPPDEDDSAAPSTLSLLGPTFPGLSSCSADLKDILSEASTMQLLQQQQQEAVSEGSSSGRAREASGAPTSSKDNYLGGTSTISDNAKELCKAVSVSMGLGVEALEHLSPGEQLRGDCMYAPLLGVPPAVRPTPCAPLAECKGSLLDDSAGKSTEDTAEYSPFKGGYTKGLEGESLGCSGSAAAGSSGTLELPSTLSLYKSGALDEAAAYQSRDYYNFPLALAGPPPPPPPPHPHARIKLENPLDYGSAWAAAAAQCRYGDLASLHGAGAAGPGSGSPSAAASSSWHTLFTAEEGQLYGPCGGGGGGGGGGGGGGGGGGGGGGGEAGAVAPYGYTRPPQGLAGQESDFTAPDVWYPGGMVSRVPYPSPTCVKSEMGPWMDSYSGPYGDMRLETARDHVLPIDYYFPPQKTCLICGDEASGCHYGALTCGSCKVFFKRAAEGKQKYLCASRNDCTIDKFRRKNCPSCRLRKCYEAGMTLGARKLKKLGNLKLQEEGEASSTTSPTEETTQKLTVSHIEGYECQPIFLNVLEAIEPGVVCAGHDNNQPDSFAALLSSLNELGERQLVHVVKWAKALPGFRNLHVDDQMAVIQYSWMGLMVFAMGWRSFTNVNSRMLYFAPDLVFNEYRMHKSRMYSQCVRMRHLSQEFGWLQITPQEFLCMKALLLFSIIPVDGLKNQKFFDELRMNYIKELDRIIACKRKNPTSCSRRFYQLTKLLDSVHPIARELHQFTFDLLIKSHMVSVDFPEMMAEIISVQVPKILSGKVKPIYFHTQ
Procedure: The AR Responsive Luciferase Reporter MDA-MB-453 Stable Cell Line (MDA-MB-453 ARE-luc) was utilized for the AR agonism assay. These cells constitutively express the firefly luciferase reporter gene under the control of the androgen receptor response element. MDA-MB-453 ARE-luc cells were cultured in RPMI media (Thermo Fisher Scientific) supplemented with 5% charcoal-Dextran treated fetal bovine serum and were maintained at 37° C. in a 5% CO2 incubator. On day 0, the cells were seeded in 96-well plates at a density of 5×10^6 cells per plate. To prevent serum androgen interference during the AR agonism assay, the cells were cultured in phenol-free RPMI media without FBS. On day 1, the cells were treated with the compounds to establish concentration-response curves (CRCs). The compounds were administered at a top concentration of 300 nM with half-log dilutions. The synthetic AR agonist R1881 served as a positive control, with a top concentration of 30 nM and half-log dilutions. E3 ligase inhibitor pomalidomide was included in each well alongside the compounds at a concentration tenfold higher than that of the treated compounds. On day 2, the culture medium was removed, and luminescence data were obtained using the Bright Glo Assay (Promega, Catalog No. E2620) with 50 μL of Bright Glo buffer per well. Luminescence signals were recorded using a plate reader, and the agonism effect was calculated as a percentage using the formula: Agonism effect (%)=(Luminescence signal of compound/Maximum signal of R1881 at 30 nM)*100.

[5] = tested on: polyQ-AR; assay: Myotube high content imaging of polyQ-AR in myotubes that overexpress polyQ-AR; assay type: cell-based, human
Procedure: Cells were maintained in skeletal growth medium (PromoCell #23160). Immortalized myoblasts harboring inducible human androgen receptor with 56 CAG repeats (hAR56Q) were constructed by lentiviral transduction with CMV-rtTA and TetO-AR56Q-T2A-Puromycin (Mamchaoui, K. et al. Skeletal Muscle 1, 34 (2011)).
On day 0, immortalized myoblasts with inducible polyQ-AR (described above in “Cell lines”) cells were seeded onto Geltrex-coated 96-well plates at a density of 4×10^6 cells per plate in myoblast basal media (Promocell C-23060) supplemented with 1% penicillin-streptomycin (Pen Strep) antibiotics. The plates were then incubated overnight at 37° C. in a 5% CO2 environment. Upon reaching 100% confluency (Day 1), the myoblast media were aspirated and replaced with myotube differentiation media (Promocell C-23061). The cells were cultured in this differentiation media for 6 days, with media changes occurring every three days.
On the sixth day of differentiation, the compounds and doxycycline ([…]) diluted in 100% dimethyl sulfoxide (DMSO) were added to the myotubes. The plate was then incubated for 24 hours at 37° C. in an incubator. On the following day (Day 7), the culture media was removed from the plates and replaced with 50 μL of 4% paraformaldehyde (PFA) prepared in 1× phosphate-buffered saline (PBS). The plates were incubated with PFA for 15 minutes, followed by three washes with PBS. Subsequently, the myotubes were permeabilized for 15 minutes using 0.5% Triton X-100 in 1×PBS and then blocked with 5% Bovine Serum Albumin (BSA) (Thermofisher, #37520) for one hour at room temperature. After blocking, the plates were incubated overnight at 4° C. with primary antibodies: a 1:100 diluted Androgen Receptor antibody (D6F11 Cell Signaling 5135S) and a 1:200 diluted Desmin antibody (Thermofisher, MA1-22150) in PBS containing 0.1% BSA. […] Degradation was quantified by determining the average intensity of AR within separate nuclear and cytoplasmic compartments in Desmin positive area (myotubes).

[6] = tested on: polyQ-AR; assay: polyQ-AR degradation in SBMA patient hiPSC-derived myotubes, capillary immunoassay; assay type: cell-based, human; details: concentration response
Procedure: Lysates for hiPSC-derived myotubes were prepared in lysis buffer ([…], 50 mM sodium chloride, 1% NP-40, 1% SDS) supplemented with Halt Protease Inhibitor (78437 Thermo Fisher Scientific), Benzonase, and MgCl2 (1 mM final concentration). The lysates were cleared by centrifugation at 4° C. and supernatants were quantified using the BIO-RAD DC protein assay (5000112 BIO-RAD). The AR and protein levels were quantified by an automated capillary immunoassay experiment (ProteinSimple). The AR and Myosin Protein levels were quantified and normalized to total protein.
Control and SBMA hiPSCs were differentiated into myotubes as previously described (Caron, L. et al. 2016, STEM CELLS Transl. Med. 5, 1145-1161) using the skeletal muscle differentiation kit (Amsbio). hiPSCs were dissociated to single cells using Accutase and plated on Geltrex-coated 10 cm culture plates at a density of 200,000 cells per plate with SBMA hiPSCs in skeletal muscle induction media (SKM01, AMSBIO). Media changes were performed every second day until cells were confluent (˜7 days). The resulting myogenic precursor cells were then dissociated to single cells using Accutase and replated on Matrigel-coated 24-well tissue culture plate with 500 μL of cells at 35,000 cells per mL in skeletal myoblast media (SKM02, AMSBIO). Half media changes were performed every second day until myoblasts reached confluence (˜7 days). The media was then switched to myotube medium (SKM03, ASMBIO). Media changes every second day until myotube formation was confirmed by microscopy. Myotubes were treated on day 20 of differentiation (6 days' worth of SKM03 media) with compounds diluted in DMSO for a final DMSO concentration of 0.01% in SKM03 media. The cells were lysed 24 hours later in Pierce RIPA buffer (Cat. No. 89900, ThermoFisher) supplemented with 1× Halt protease inhibitor cocktail (Cat. No. 87786, ThermoFisher), 1 mM MgCl2, and 1 μL Benzonase Nuclease. AR protein was measured by capillary electrophoresis. […]

[7] = tested on: polyQ-AR; assay: Global proteomics in SBMA hiPSC-myotubes: polyQ-AR and specificity; assay type: cell-based, human; details: 12 nM, SBMA hiPSC-myotubes
Source text: (§1) (FIG. 12A). […] (FIG. 12C).

[8] = target: T2, PDE6D (Homo sapiens, UniProt O43924); assay: Global proteomics / Western blot in SBMA hiPSC-myotubes: neosubstrate PDE6D; assay type: cell-based; details: global proteomics, SBMA hiPSC-myotubes
T2 construct: endogenous in cells; host or cells: SBMA hiPSC-derived myotubes
Source text: as §1

T2 sequence (O43924 whole entry): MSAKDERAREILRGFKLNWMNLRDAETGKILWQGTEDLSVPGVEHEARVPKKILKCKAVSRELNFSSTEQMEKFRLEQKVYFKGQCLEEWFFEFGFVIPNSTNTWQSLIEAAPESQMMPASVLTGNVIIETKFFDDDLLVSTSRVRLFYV
hERG, sequence (Q12809 whole entry): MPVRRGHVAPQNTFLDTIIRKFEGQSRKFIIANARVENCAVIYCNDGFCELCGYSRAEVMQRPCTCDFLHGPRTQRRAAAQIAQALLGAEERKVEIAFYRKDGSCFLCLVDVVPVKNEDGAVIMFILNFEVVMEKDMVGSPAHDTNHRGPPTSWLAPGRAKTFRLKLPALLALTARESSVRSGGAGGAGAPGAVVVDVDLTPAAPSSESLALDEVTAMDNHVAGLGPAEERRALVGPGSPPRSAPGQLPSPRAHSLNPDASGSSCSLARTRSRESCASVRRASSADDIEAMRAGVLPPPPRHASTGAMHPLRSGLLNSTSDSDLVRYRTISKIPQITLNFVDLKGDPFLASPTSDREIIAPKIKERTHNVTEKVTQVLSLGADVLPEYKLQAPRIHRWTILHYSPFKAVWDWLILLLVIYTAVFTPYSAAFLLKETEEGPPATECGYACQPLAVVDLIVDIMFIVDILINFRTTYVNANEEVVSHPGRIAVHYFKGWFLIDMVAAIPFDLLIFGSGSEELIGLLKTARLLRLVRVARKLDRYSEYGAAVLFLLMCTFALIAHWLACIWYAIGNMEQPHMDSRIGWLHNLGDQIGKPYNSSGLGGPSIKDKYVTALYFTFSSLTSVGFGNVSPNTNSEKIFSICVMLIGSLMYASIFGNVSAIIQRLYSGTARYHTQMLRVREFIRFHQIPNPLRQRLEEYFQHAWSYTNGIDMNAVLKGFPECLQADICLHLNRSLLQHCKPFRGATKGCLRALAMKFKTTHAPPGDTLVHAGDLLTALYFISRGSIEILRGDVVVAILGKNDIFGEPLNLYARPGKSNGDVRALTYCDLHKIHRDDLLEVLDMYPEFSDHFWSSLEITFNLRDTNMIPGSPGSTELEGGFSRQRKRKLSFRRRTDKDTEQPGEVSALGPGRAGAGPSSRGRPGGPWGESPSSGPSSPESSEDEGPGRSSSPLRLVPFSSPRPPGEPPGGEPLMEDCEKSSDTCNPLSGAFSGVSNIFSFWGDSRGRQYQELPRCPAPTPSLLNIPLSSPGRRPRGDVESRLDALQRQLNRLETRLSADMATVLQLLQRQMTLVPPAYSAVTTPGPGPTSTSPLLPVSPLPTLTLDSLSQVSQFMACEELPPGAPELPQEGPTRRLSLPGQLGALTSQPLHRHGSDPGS

Q: For `CC1(C)[C@H](NC(=O)c2cnc(N3CCC(CN4CCN(c5cc6c(cc5F)C(=O)N(C5CCC(=O)NC5=O)C6=O)CC4)CC3)nc2)C(C)(C)[C@H]1Oc1ccc(C#N)c(Cl)c1` (stereo partly shown) [Compound C], which hepatocyte toxicity [1] is on record?
A: The hepatocyte toxicity was 50%.

Q: With `CCN(CC1CCN(c2cnc(C(=O)N[C@H]3C(C)(C)[C@H](Oc4cc(C)c(C#N)c(C)c4)C3(C)C)cn2)CC1)[C@H]1C[C@H](Oc2ccc3c(c2)C(=O)N(C2CCC(=O)NC2=O)C3=O)C1` (stereo partly shown) [Compound D] as the compound, how does the hERG inhibition [2] read?
A: The hERG inhibition was less than 10 µM.

Q: Which oral bioavailability [3] does the source give for `COc1cc(O[C@H]2CC[C@H](NC(=O)c3cnc(N4CCC(CN(C(C)C)[C@H]5C[C@H](Oc6ccc7c(c6)C(=O)N(C6CCC(=O)NC6=O)C7=O)C5)CC4)cn3)CC2)ccc1C#N` (stereo partly shown) [Compound E] here?
A: The oral bioavailability was “poor oral bioavailability”.

Q: Which results are given for `Cc1cc(O[C@H]2C(C)(C)[C@H](NC(=O)c3cnc(N4CCC(CN(C(C)C)[C@H]5C[C@H](Oc6ccc7c(c6)C(=O)N(C6CCC(=O)NC6=O)C7=O)C5)CC4)nc3)C2(C)C)cc(C)c1C#N` (stereo partly shown) [Compound B]?
A: agonism activity at Emax relative to R1881 [4]: > 40%; EC50 ([4]; read-out: EC50, AR agonist activity): 37 nM; mean Dmax for polyQ-AR in myotube nuclei ([5]; 24 hours treatment, nuclear compartment): increase in nuclear polyQ-AR; total polyQ-AR signal in myotubes ([5]; data not shown): reduced the total polyQ-AR signal

Q: With `CC(C)N(CC1CCN(c2ncc(C(=O)N[C@H]3C(C)(C)[C@H](Oc4ccc(C#N)c(Cl)c4)C3(C)C)cn2)CC1)[C@H]1C[C@H](Oc2ccc3c(c2)C(=O)N(C2CCCN(C)C2=O)C3=O)C1` (stereo partly shown) [Compound F, reference compound] as the compound, how does the “polyQ-AR degradation in SBMA hiPSC-myotubes” value [6] read?
A: The value was “did not induce polyQ-AR degradation”.

Q: And the “polyQ-AR degradation compared to control, global proteomics” value [7]?
A: Its value is “does not induce degradation; also recorded: does not degrade AR”.

Q: And the PDE6D as neosubstrate [8]?
A: Its PDE6D as neosubstrate is “not a neosubstrate”.
